Experimental data as given in patent publication US20260070945A1, “MACROCYCLIC IMMUNOMODULATORS” (Bristol-Myers Squibb Company, priority 2022, published 2026).
pIC50: −log10 of the molar value. *1 amine or outer side, *2 acyl side, *3 side chain or, on linkers, in order; H or OH if unused. Where a SMILES comes first, the peptide text is derived from it. Bridges are numbered along the chain shown (N, C = ends). [ ]: non-standard residue; d: D form. The star is where a group is joined. ξ: configuration not given here. Phe(4-COOH) = N[C@@H](Cc1ccc(C(=O)O)cc1)C(=O)O; Bip = N[C@@H](Cc1ccc(-c2ccccc2)cc1)C(=O)O; γGlu = O=C(O)[C@H](CCC(=O)[*:2])N[*:1]; 4Pal = N[C@@H](Cc1ccncc1)C(=O)O; Cha = N[C@@H](CC1CCCCC1)C(=O)O; Ile(3ξ) = CCC(C)[C@H](N)C(=O)O; Thr(3ξ) = CC(O)[C@H](N)C(=O)O; dOrn = NCCC[C@@H](N)C(=O)O; Carboxymethyl = O=C(O)C*; NMeA = CN[C@@H](C)C(=O)O; Orn = NCCC[C@H](N)C(=O)O; dDap = NC[C@@H](N)C(=O)O; Aun = NCCCCCCCCCCC(=O)O; Dab = NCC[C@H](N)C(=O)O; Dap = NC[C@H](N)C(=O)O; AEEA = NCCOCCOCC(=O)O

Target: T1, PD-1/PD-L1 interaction (PE-labeled human PD-L1-Ig binding to Jurkat cell line over-expressing human PD-1) (Homo sapiens, UniProt Q15116)
T1 construct: expressed in transfected cells; host or cells: Jurkat
Assay: Jurkat-PD-1 Cell Binding High-Content Screening Assay (CBA)
Details: Jurkat-hPD-1 cells, PE-labeled PD-L1-Ig 20 nM final; read-out: Jurkat HPD1 PDL1 IC50
In short: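 Read-out: high-content imaging of cell-bound PE fluorescence, with Hoechst 33342 nuclear counterstain after paraformaldehyde fixation. Before labeled ligand (20 nM final, 1 h) was added, compound sat on the cells for 2 h at 37 °C in DMEM/10% FCS.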

T1 sequence (Q15116 25-288): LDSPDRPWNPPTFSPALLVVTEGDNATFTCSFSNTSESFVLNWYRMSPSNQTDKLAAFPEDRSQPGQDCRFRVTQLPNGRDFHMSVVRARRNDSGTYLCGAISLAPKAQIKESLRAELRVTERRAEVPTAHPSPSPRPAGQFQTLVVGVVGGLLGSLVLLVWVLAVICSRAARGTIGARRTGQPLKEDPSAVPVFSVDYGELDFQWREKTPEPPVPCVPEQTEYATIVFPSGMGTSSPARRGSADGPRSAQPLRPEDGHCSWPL

Point of comparison: `CCC(C)[C@@H]1NC(=O)[C@H](Cc2ccc(-c3ccccc3)cc2)NC(=O)[C@H](CC(C)C)NC(=O)[C@H](Cc2c[nH]c3ccccc23)NC(=O)[C@H](CC(=O)O)NC(=O)[C@H](Cc2ccc(O)cc2)NC(=O)[C@H](Cc2ccncc2)NC(=O)CSC[C@@H](C(=O)N[C@@H](CCCN)C(=O)NCCOCCOCC(=O)NCCCCCCCCCCC(=O)O)NC(=O)[C@H](CO)NC(=O)[C@H](C(C)C)NC(=O)[C@H](CC2CCCCC2)NC(=O)[C@H](CCN)NC(=O)[C@@H](CC(C)C)NC(=O)[C@H](C)N(C)C1=O` (stereo partly drawn) [Example 2073] ({CH2CO}-[4Pal]YDWL[Bip][Ile(3ξ)][NMeA][dL][Dab][Cha]VSC[Orn][AEEA][Aun]-OH; thioether N-14), pIC50 7.36. Against it:
- CCC(C)[C@@H]1NC(=O)[C@H](Cc2ccc(-c3ccccc3)cc2)NC(=O)[C@H](CC(C)C)NC(=O)[C@H](Cc2c[nH]c3ccccc23)NC(=O)[C@H](CC(=O)O)NC(=O)[C@H](Cc2ccc(OCC(=O)O)cc2)NC(=O)[C@H](Cc2ccncc2)NC(=O)CSC[C@@H](C(=O)NCCOCCOCC(=O)N[C@@H](CCCN)C(=O)NCCCCCCCCCCC(=O)O)NC(=O)[C@H](CO)NC(=O)[C@H](C(C)C)NC(=O)[C@H](CC(C)C)NC(=O)[C@H](CC(N)=O)NC(=O)[C@@H](CC(C)C)NC(=O)[C@H](C)N(C)C1=O (stereo partly drawn) [Example 2062] ({CH2CO}-[4Pal]Y(Carboxymethyl)DWL[Bip][Ile(3ξ)][NMeA][dL]NLVSC[AEEA][Orn][Aun]-OH; thioether N-14) — within 0.2 log units, 7.42
- CCC(C)[C@@H]1NC(=O)[C@H](Cc2ccc(-c3ccccc3)cc2)NC(=O)[C@H](CC(C)C)NC(=O)[C@H](Cc2c[nH]c3ccccc23)NC(=O)[C@H](CC(=O)O)NC(=O)[C@H](Cc2ccc(O)cc2)NC(=O)[C@H](CC(N)=O)NC(=O)CSC[C@@H](C(=O)N[C@H](CC(N)=O)C(=O)NCCOCCOCC(=O)NCCCCCCCCCCC(=O)O)NC(=O)[C@H](CO)NC(=O)[C@H](C(C)C)NC(=O)[C@H](CC(C)C)NC(=O)[C@H](CCN)NC(=O)[C@@H](CC(C)C)NC(=O)[C@H](C)N(C)C1=O (stereo partly drawn) [Example 2063] ({CH2CO}-NYDWL[Bip][Ile(3ξ)][NMeA][dL][Dab]LVSC[dN][AEEA][Aun]-OH; thioether N-14) — within 0.2 log units, 7.19
- CCC(C)[C@@H]1NC(=O)[C@H](Cc2ccc(-c3ccccc3)cc2)NC(=O)[C@H](CC(C)C)NC(=O)[C@H](Cc2c[nH]c3ccccc23)NC(=O)[C@H](CC(=O)O)NC(=O)[C@H](Cc2ccc(OCC(=O)O)cc2)NC(=O)[C@H](Cc2ccncc2)NC(=O)CSC[C@@H](C(=O)N[C@H](CC(N)=O)C(=O)NCCOCCOCC(=O)NCCCCCCCCCCC(=O)O)NC(=O)[C@H](CO)NC(=O)[C@H](C(C)C)NC(=O)[C@H](CC(C)C)NC(=O)[C@H](CCN)NC(=O)[C@@H](CC(C)C)NC(=O)[C@H](C)N(C)C1=O (stereo partly drawn) [Example 2064] ({CH2CO}-[4Pal]Y(Carboxymethyl)DWL[Bip][Ile(3ξ)][NMeA][dL][Dab]LVSC[dN][AEEA][Aun]-OH; thioether N-14) — 0.32 log units higher, 7.68
- CCC(C)[C@@H]1NC(=O)[C@H](Cc2ccc(-c3ccccc3)cc2)NC(=O)[C@H](CC(C)C)NC(=O)[C@H](Cc2c[nH]c3ccccc23)NC(=O)[C@H](CC(=O)O)NC(=O)[C@H](Cc2ccc(C(=O)O)cc2)NC(=O)[C@H](Cc2ccc(OCC(=O)O)cc2)NC(=O)CSC[C@@H](C(=O)N[C@H](CC(N)=O)C(=O)NCCOCCOCC(=O)NCCCCCCCCCCC(=O)O)NC(=O)[C@H](CO)NC(=O)[C@H](C(C)C)NC(=O)[C@H](CC2CCCCC2)NC(=O)[C@H](CCN)NC(=O)[C@@H](CC(C)C)NC(=O)[C@H](C)N(C)C1=O (stereo partly drawn) [Example 2065] ({CH2CO}-Y(Carboxymethyl)[Phe(4-COOH)]DWL[Bip][Ile(3ξ)][NMeA][dL][Dab][Cha]VSC[dN][AEEA][Aun]-OH; thioether N-14) — 0.40 log units higher, 7.76
- CCC(C)[C@@H]1NC(=O)[C@H](Cc2ccc(-c3ccccc3)cc2)NC(=O)[C@H](CC(C)C)NC(=O)[C@H](Cc2c[nH]c3ccccc23)NC(=O)[C@H](CC(=O)O)NC(=O)[C@H](Cc2ccc(C(=O)O)cc2)NC(=O)[C@H](Cc2ccc(OCC(=O)O)cc2)NC(=O)CSC[C@@H](C(=O)NCCOCCOCC(=O)N[C@@H](CN)C(=O)NCCCCCCCCCCC(=O)O)NC(=O)[C@H](CO)NC(=O)[C@H](C(C)C)NC(=O)[C@H](CC2CCCCC2)NC(=O)[C@H](CC(N)=O)NC(=O)[C@@H](CC(C)C)NC(=O)[C@H](C)N(C)C1=O (stereo partly drawn) [Example 2066] ({CH2CO}-Y(Carboxymethyl)[Phe(4-COOH)]DWL[Bip][Ile(3ξ)][NMeA][dL]N[Cha]VSC[AEEA][Dap][Aun]-OH; thioether N-14) — 0.40 log units lower, 6.96
- CCC(C)[C@@H]1NC(=O)[C@H](Cc2ccc(-c3ccccc3)cc2)NC(=O)[C@H](C(C)C)NC(=O)[C@H](Cc2c[nH]c3ccccc23)NC(=O)[C@H](CC(=O)O)NC(=O)[C@H](Cc2ccc(OCC(=O)O)cc2)NC(=O)[C@H](Cc2ccncc2)NC(=O)CSC[C@@H](C(=O)N[C@H](CN)C(=O)NCCOCCOCC(=O)N[C@@H](CCC(=O)NCCCCCCCCCCC(=O)O)C(=O)O)NC(=O)[C@H](CO)NC(=O)[C@H](C(C)C)NC(=O)[C@H](CC2CCCCC2)NC(=O)[C@H](CC(N)=O)NC(=O)[C@@H](CC(C)C)NC(=O)[C@H](C)N(C)C1=O (stereo partly drawn) [Example 2067] ({CH2CO}-[4Pal]Y(Carboxymethyl)DWV[Bip][Ile(3ξ)][NMeA][dL]N[Cha]VSC[dDap][AEEA][γGlu][Aun]-OH; thioether N-14) — within 0.2 log units, 7.45
- CCC(C)[C@@H]1NC(=O)[C@H](Cc2ccc(-c3ccccc3)cc2)NC(=O)[C@H](C(C)C)NC(=O)[C@H](Cc2c[nH]c3ccccc23)NC(=O)[C@H](CC(=O)O)NC(=O)[C@H](Cc2ccc(O)cc2)NC(=O)[C@H](Cc2ccncc2)NC(=O)CSC[C@@H](C(=O)N[C@@H](CN)C(=O)NCCOCCOCC(=O)NCCCCCCCCCCC(=O)O)NC(=O)[C@H](C(C)O)NC(=O)[C@H](C(C)C)NC(=O)[C@H](CC2CCCCC2)NC(=O)[C@H](CC(N)=O)NC(=O)[C@@H](CC(C)C)NC(=O)[C@H](C)N(C)C1=O (stereo partly drawn) [Example 2068] ({CH2CO}-[4Pal]YDWV[Bip][Ile(3ξ)][NMeA][dL]N[Cha]V[Thr(3ξ)]C[Dap][AEEA][Aun]-OH; thioether N-14) — 0.39 log units lower, 6.97
- CCC(C)[C@@H]1NC(=O)[C@H](Cc2ccc(-c3ccccc3)cc2)NC(=O)[C@H](CC(C)C)NC(=O)[C@H](Cc2c[nH]c3ccccc23)NC(=O)[C@H](CC(=O)O)NC(=O)[C@H](Cc2ccc(C(=O)O)cc2)NC(=O)[C@H](Cc2ccc(OCC(=O)O)cc2)NC(=O)CSC[C@@H](C(=O)N[C@@H](CC(N)=O)C(=O)N[C@@H](CCC(=O)NCCCCCCCCCCC(=O)O)C(=O)O)NC(=O)[C@H](CO)NC(=O)[C@H](C(C)C)NC(=O)[C@H](CC2CCCCC2)NC(=O)[C@H](CCN)NC(=O)[C@@H](CC(C)C)NC(=O)[C@H](C)N(C)C1=O (stereo partly drawn) [Example 2069] ({CH2CO}-Y(Carboxymethyl)[Phe(4-COOH)]DWL[Bip][Ile(3ξ)][NMeA][dL][Dab][Cha]VSCN[γGlu][Aun]-OH; thioether N-14) — 0.25 log units higher, 7.61
- CCC(C)[C@@H]1NC(=O)[C@H](Cc2ccc(-c3ccccc3)cc2)NC(=O)[C@H](CC(C)C)NC(=O)[C@H](Cc2c[nH]c3ccccc23)NC(=O)[C@H](CC(=O)O)NC(=O)[C@H](Cc2ccc(O)cc2)NC(=O)[C@H](Cc2ccncc2)NC(=O)CSC[C@@H](C(=O)N[C@H](CCCN)C(=O)NCCOCCOCC(=O)NCCCCCCCCCCC(=O)O)NC(=O)[C@H](CO)NC(=O)[C@H](C(C)C)NC(=O)[C@H](CC2CCCCC2)NC(=O)[C@H](CC(N)=O)NC(=O)[C@@H](CC(C)C)NC(=O)[C@H](C)N(C)C1=O (stereo partly drawn) [Example 2070] ({CH2CO}-[4Pal]YDWL[Bip][Ile(3ξ)][NMeA][dL]N[Cha]VSC[dOrn][AEEA][Aun]-OH; thioether N-14) — 0.35 log units lower, 7.01
- CCC(C)[C@@H]1NC(=O)[C@H](Cc2ccc(-c3ccccc3)cc2)NC(=O)[C@H](C(C)C)NC(=O)[C@H](Cc2c[nH]c3ccccc23)NC(=O)[C@H](CC(=O)O)NC(=O)[C@H](Cc2ccc(O)cc2)NC(=O)[C@H](Cc2ccncc2)NC(=O)CSC[C@@H](C(=O)N[C@H](CN)C(=O)NCCOCCOCC(=O)NCCCCCCCCCCC(=O)O)NC(=O)[C@H](C(C)O)NC(=O)[C@H](C(C)C)NC(=O)[C@H](CC2CCCCC2)NC(=O)[C@H](CCN)NC(=O)[C@@H](CC(C)C)NC(=O)[C@H](C)N(C)C1=O (stereo partly drawn) [Example 2071] ({CH2CO}-[4Pal]YDWV[Bip][Ile(3ξ)][NMeA][dL][Dab][Cha]V[Thr(3ξ)]C[dDap][AEEA][Aun]-OH; thioether N-14) — 0.33 log units higher, 7.69
- CCC(C)[C@@H]1NC(=O)[C@H](Cc2ccc(-c3ccccc3)cc2)NC(=O)[C@H](CC(C)C)NC(=O)[C@H](Cc2c[nH]c3ccccc23)NC(=O)[C@H](CC(=O)O)NC(=O)[C@H](Cc2ccc(O)cc2)NC(=O)[C@H](CC(N)=O)NC(=O)CSC[C@@H](C(=O)N[C@@H](C)C(=O)NCCOCCOCC(=O)NCCCCCCCCCCC(=O)O)NC(=O)[C@H](CO)NC(=O)[C@H](C(C)C)NC(=O)[C@H](CC2CCCCC2)NC(=O)[C@H](CCN)NC(=O)[C@@H](CC(C)C)NC(=O)[C@H](C)N(C)C1=O (stereo partly drawn) [Example 2072] ({CH2CO}-NYDWL[Bip][Ile(3ξ)][NMeA][dL][Dab][Cha]VSCA[AEEA][Aun]-OH; thioether N-14) — 0.24 log units higher, 7.60
- CCC(C)[C@@H]1NC(=O)[C@H](Cc2ccc(-c3ccccc3)cc2)NC(=O)[C@H](CC(C)C)NC(=O)[C@H](Cc2c[nH]c3ccccc23)NC(=O)[C@H](CC(=O)O)NC(=O)[C@H](Cc2ccc(C(=O)O)cc2)NC(=O)[C@H](Cc2ccc(OCC(=O)O)cc2)NC(=O)CSC[C@@H](C(=O)NCCOCCOCC(=O)N[C@@H](CN)C(=O)NCCCCCCCCCCC(=O)O)NC(=O)[C@H](CO)NC(=O)[C@H](C(C)C)NC(=O)[C@H](CC2CCCCC2)NC(=O)[C@H](CCN)NC(=O)[C@@H](CC(C)C)NC(=O)[C@H](C)N(C)C1=O (stereo partly drawn) [Example 2074] ({CH2CO}-Y(Carboxymethyl)[Phe(4-COOH)]DWL[Bip][Ile(3ξ)][NMeA][dL][Dab][Cha]VSC[AEEA][Dap][Aun]-OH; thioether N-14) — 0.64 log units higher, 8.00
